# Measurements reported in patent publication US20220073941A1, “HERBICIDE-RESISTANT CAMELINA SATIVA PLANTS, AND VARIANT CAMELINA ACETOHYDROXYACID SYNTHASE POLYPEPTIDES” (priority 2019, published 2022).
# Key:
# Format in all cases: in vivo, Camelina sativa
# [1] = test system: 12CS0365; test: Greenhouse dose-response to thifensulfuron-methyl, plant height and dry biomass (Example 6)
# [2] = test system: resistant lines 12CS0365, 12CS0366, 13CS0786; test: Phenotype scoring (resistant/susceptible) 7 d after 2.5 g ai/ha thifensulfuron-methyl (Example 5)
# Source text: (§1) At a thifensulfuron-methyl application rate of 2.5 g ai/ha, plants from parental, F2, BC1F1, and BC4F2 populations could easily be scored into one of two discrete phenotypic classes (R, resistant or S, susceptible) 7 d after herbicide application.
# [3] = test system: susceptible controls SRS 934, 10CS0048; test: as above; conditions: 7 d after application
# Source text: as §1
# [4] = test system: 12CS0366; test: Greenhouse dose-response to thifensulfuron-methyl, plant height and dry biomass (Example 6)
smiles,measurement,setting,value
COC(=O)c1sccc1S(=O)(=O)NC(=O)Nc1nc(C)nc(OC)n1 [thifensulfuron-methyl],"Ratio of ED50 biomass values, estimate",[1]; 12CS0365/12CS0366,0.08
same,"Ratio of ED50 height values, estimate",[1]; 12CS0365/12CS0366,0.35
same,"Ratio of ED50 biomass values, estimate",[1]; 12CS0365/13CS0786,0.008
same,"Ratio of ED50 height values, estimate",[1]; 12CS0365/13CS0786,0.02
same,"Ratio of ED50 biomass values, estimate",[1]; 12CS0365/SRS 934,7.93
same,"Ratio of ED50 height values, estimate",[1]; 12CS0365/SRS 934,12.72
same,phenotype after herbicide application,[2],consistently produced a resistant phenotype
same,phenotype after herbicide application,[3],either killed or greatly damaged
same,"Ratio of ED50 biomass values, estimate",[4]; 12CS0366/13CS0786,0.0968
same,"Ratio of ED50 height values, estimate",[4]; 12CS0366/13CS0786,0.20
same,"Ratio of ED50 biomass values, estimate",[4]; 12CS0366/SRS 934,99.70
same,"Ratio of ED50 height values, estimate",[4]; 12CS0366/SRS 934,36.9
